Patent EP3685668B1, “COMPOSITION COMPRISING ACIBENZOLAR-S-METHYL AS EFFECTIVE INGREDIENT FOR CONTROLLING BURSAPHELENCHUS XYLOPHILUS DISEASE AND METHOD FOR CONTROLLING BURSAPHELENCHUS XYLOPHILUS USING SAME” (Industry Foundation of Chonnam National University, priority 2017, dated 2019)

Tests used:
Test in all cases: qRT-PCR expression of induced resistance gene in pine tree callus
Type in all cases: cell-based
Conditions in all cases: 200 µg/mℓ, 24 hours
Antipeptide = tested on: Antipeptide
Experimental: (§1) For in vitro analysis of induced resistance, the expression of PR genes and other plant defense-related genes was determined, which are evolved in various defense mechanisms including induced resistance. The primers of sixteen induced resistance-related genes of pine tree used in this invention were listed in the below and elongation factor_1 alpha were used as a reference gene. [Table 4] The primer list of defense resistance-related genes
(§2) After the treatment with 200 µg / mℓ of candidates of the selected induced resistance material, expression of the induced resistance-related gene in pine callus was determined by qRT-PCR using the primer pairs of defense resistance-related genes in Table 4. As a candidate group of an induced resistance material in pine tree, acibenzolar-S-methyl (ASM), TDL (Tiadinil), ITL (Isotianil), PBZ (Probenzole), AZO (Azoxystrobin), VMA (Validamycin A), MeJA (Methyl jasmonate), BABA (DL-3-aminobutyric acid), 2,3-BDO (2,3-Butanediol), GABA (r-Aminobutyric acid), glucan (Glucan), ER (Ergosterol), and AZA (Azelaic acid) were used. For the in vitro analysis of the expression of induced resistance gene in pine callus, the selected induced resistance materials were applied with 500 µℓ of LM liquid medium on a surface of pine tree callus (100 mg) in 12-well microplate to give final concentration of 200 µg/mℓ. Then, the callus surface was sufficiently reacted for 24 hours with the candidate of pine tree induced resistance material by shaking at 50 rpm in a 25 °C shaking incubator under dark condition. RNAs were extracted from the callus after completion of the reaction with an induced resistance material, followed by synthesis of cDNAs. Then, by carrying out qRT-PCR, the expression of induced resistance genes was determined. [Table 5] Expression of induced resistance gene in pine tree callus by TDL, PBZ, ASM, ITL, AZO, VMA, glucan, and AZA
(§3) Based on the results of assay using young plants and gene expression by selected induce resistance materials, it seemed that acibenzolar-S-methyl had the most excellent effect. Thus, the following tests were carried out using acibenzolar-S-methyl only. Expression of the induced resistance genes at different culture time after the chemical treatment was examined. For the in vitro assay, LM medium containing pine tree callus was treated with acibenzolar-S-methyl at concentration of 200 µg / mℓ, followed by reaction for 1 day, 7 days, or 14 days in a 25°C shaking incubator under dark condition. RNAs were extracted from the callus after the reaction followed by synthesis of cDNAs. Then, by carrying out qRT-PCR, the expression of the induced resistance genes was determined. Depending on reaction time after the treatment, i.e., after 1 day, 7 days, or 14 days, the expression of the obtained induced resistance genes was examined. As a result of the in vitro callus assay depending on reaction time after the treatment with acibenzolar-S-methyl, the expression of the induced resistance-related genes is the highest at 1 day after the treatment with acibenzolar-S-methyl and gradually diminished over time, as it is shown in Table 7. In this regard, it is contemplated that the expression of genes acquired by acibenzolar-S-methyl is not maintained in highly expressed state until the pathogen invasion and just memorized with at minimum level so that the energy consumption by plant can be efficiently managed. [Table 7] Expression of induced resistance gene in pine tree callus by acibenzolar-S-methyl depending on reaction time
(§4) To have an in vitro assay according to different methods of treatment with acibenzolar-S-methyl, two separate treatment methods, i.e., surface treatment (spraying treatment) of pine tree callus and direct application of the induced resistance material to an LM medium containing pine tree callus, were performed. […]

Extensin = tested on: Extensin
Experimental: as §1, §2, §3, §4

Hydroxyproline = tested on: Hydroxyproline
Experimental: as §1, §2, §3, §4

Metallothionein = tested on: Metallothionein
Experimental: as §1, §2, §3, §4

PR_2 family = tested on: PR_2 family
Experimental: as §1, §2, §3, §4

PR_4 family = tested on: PR_4 family
Experimental: as §1, §2, §3, §4

Cytochrome_P450 = tested on: Cytochrome_P450
Experimental: For in vitro analysis of induced resistance, the expression of PR genes and other plant defense-related genes was determined, which are evolved in various defense mechanisms including induced resistance. The primers of sixteen induced resistance-related genes of pine tree used in this invention were listed in the below and elongation factor_1 alpha were used as a reference gene. […] The primer list of defense resistance-related genes
as §2, with “determined.” for “determined. [Table 5] Expression of induced resistance gene in pine tree callus by TDL, PBZ, ASM, ITL, AZO, VMA, glucan, and AZA”
Thus, the following tests were carried out using acibenzolar-S-methyl only. Expression of the induced resistance genes at different culture time after the chemical treatment was examined. For the in vitro assay, LM medium containing pine tree callus was treated with acibenzolar-S-methyl at concentration of 200 µg / mℓ, followed by reaction for 1 day, 7 days, or 14 days in a 25°C shaking incubator under dark condition. RNAs were extracted from the callus after the reaction followed by synthesis of cDNAs. Then, by carrying out qRT-PCR, the expression of the induced resistance genes was determined. Depending on reaction time after the treatment, i.e., after 1 day, 7 days, or 14 days, the expression of the obtained induced resistance genes was examined. […]
For the surface treatment (spraying treatment) of pine tree callus, 100 mg of the pine tree callus were dunked in 500 µℓ LM liquid medium and 500 µℓ of 400 µg/mℓ acibenzolar-S-methyl were sprayed (i.e., sprayed 5 times, 100 µℓ for each spraying, 200 µg/mℓ) on the callus surface. Then, the pine callus sprayed with acibenzolar-S-methyl was reacted for 24 hours by shaking at 50 rpm in a 25°C shaking incubator under dark condition. After the completion of the 24-hour reaction, RNAs were extracted from the callus followed by synthesis of cDNAs. Then, by carrying out qRT-PCR, expression of the induced resistance gene was determined.

| SMILES | Expression of induced resistance gene, Antipeptide (Antipeptide) | Expression of induced resistance gene, Extensin (Extensin) | Expression of induced resistance gene, Hydroxyproline (Hydroxyproline) | Expression of induced resistance gene, Metallothionein (Metallothionein) | Expression of induced resistance gene, PR_2 family (PR_2 family) | Expression of induced resistance gene, PR_4 family (PR_4 family) | Expression of induced resistance gene, Cytochrome_P450 (Cytochrome_P450) |
| --- | --- | --- | --- | --- | --- | --- | --- |
| CC(C)[C@@H](C)/C=C/[C@@H](C)[C@H]1CC[C@H]2C3=CC=C4C[C@@H](O)CC[C@]4(C)[C@H]3CC[C@]12C [ER, Ergosterol] | 2.11 | 1.06 | 1.42 | 1.37 | 1.17 | 1.13 | 1.06 |
| NCCCC(=O)O [GABA, r-Aminobutyric acid] | 1.13 | 1.83 | 5.98 | 0.92 | 1.66 | 1.95 | 2.41 |
| N#Cc1ccccc1NC(=O)c1snc(Cl)c1Cl [ITL, Isotianil] | 0.75 | 1.39 | 0.72 | 0.09 | 1.48 | 1.39 | 0.98 |
| CC/C=C\CC1C(=O)CCC1CC(=O)OC (stereo not shown) [MeJA, Methyl jasmonate] | 0.43 | 0.93 | 0.53 | 0.21 | 0.47 | 5.86 | 0.3 |
| C=CCOC1=NS(=O)(=O)c2ccccc21 [PBZ, Probenzole] | 1.11 | 1.62 | 1.21 | 0.25 | 0.46 | 0.46 | 1.06 |
| Cc1ccc(NC(=O)c2snnc2C)cc1Cl [TDL, Tiadinil] | 0.64 | 1.05 | 0.97 | 0.1 | 0.98 | 1.24 | 0.91 |
| OCC1=C[C@@H](N[C@H]2C[C@H](CO)[C@@H](O[C@H]3O[C@@H](CO)[C@H](O)[C@@H](O)[C@@H]3O)[C@H](O)[C@H]2O)[C@H](O)[C@@H](O)[C@@H]1O [VMA, Validamycin A] | 2.36 | 0.66 | 2.31 | 0.99 | 0.83 | 1.43 | 1.17 |
